Results from PMC11124822, “Discovery and Anticancer Screening of Novel Oxindole-Based Derivative Bearing Pyridyl Group as Potent and Selective Dual FLT3/CDK2 Kinase Inhibitor” (Pharmaceuticals, 2024).
Where two headings read alike, the source gives them in different places.

Experiments:
UACC-62 = test: NCI-60 antiproliferative screen (SRB); type: cell-based, human; conditions: 48 h; for inhibition at 10 µM: 10 µM single dose, UACC-62 (Melanoma), read-out: Growth inhibition (%)
SK-MEL-28 = test: NCI-60 antiproliferative screen (SRB); type: cell-based, human; conditions: for inhibition at 10 µM: 10 µM single dose, SK-MEL-28 (Melanoma), read-out: Growth inhibition (%)
IGF1R = target: T1, IGF1R (Homo sapiens, UniProt P08069); test: Z'-LYTE kinase assay; type: biochemical
T1 construct: purchased Invitrogen/Life Technologies
Experimental: (§1) The inhibition percentages of the target compound 5l at a concentration of 10 µM were assessed using DMSO as a solvent against ten kinases, namely PTK2B, JAK1, CDK2, FGFR1, IGF1R, VEGFR-2, PDGFRα, PDGFRβ, FLT3, and Src. The Z’-LYTE® technology, which relies on FRET (Fluorescence Resonance Energy Transfer) from Invitrogen/Life Technologies, was employed for this evaluation for all kinases except VEGFR-2. The VEGFR-2 kinase assay was conducted in a 96-well streptavidin-coated plate using a recombinant human VEGFR-2/KDR ELISA kit, following the manufacturer’s instructions. […] Statistical significance was assessed using one-way analysis of variance (ANOVA), followed by the Dunnett test; data are represented as means ± SD.

PDGFRβ = target: T2, PDGFRβ (Homo sapiens, UniProt P09619); test: Z'-LYTE kinase assay; type: biochemical
T2 construct: purchased Invitrogen/Life Technologies
Experimental: as §1

JAK1 = target: T3, JAK1 (Homo sapiens, UniProt P23458); test: Z'-LYTE kinase assay; type: biochemical
T3 construct: purchased Invitrogen/Life Technologies
Experimental: as §1

SRC = target: T4, SRC (Homo sapiens, UniProt P12931); test: Z'-LYTE kinase assay; type: biochemical
T4 construct: purchased Invitrogen/Life Technologies
Experimental: as §1

PTK2B = target: T5, PTK2B (Homo sapiens, UniProt Q14289); test: Z'-LYTE kinase assay; type: biochemical
T5 construct: purchased Invitrogen/Life Technologies
Experimental: as §1

FGFR1 = target: T6, FGFR1 (Homo sapiens, UniProt P11362); test: Z'-LYTE kinase assay; type: biochemical
T6 construct: purchased Invitrogen/Life Technologies
Experimental: as §1

PDGFRα = target: T7, PDGFRα (Homo sapiens, UniProt P16234); test: Z'-LYTE kinase assay; type: biochemical
T7 construct: purchased Invitrogen/Life Technologies
Experimental: as §1

FLT3 = target: T8, FLT3 (Homo sapiens, UniProt P36888); test: Z'-LYTE kinase assay; type: biochemical
T8 construct: purchased Invitrogen/Life Technologies
T8 sequence (P36888 27-993): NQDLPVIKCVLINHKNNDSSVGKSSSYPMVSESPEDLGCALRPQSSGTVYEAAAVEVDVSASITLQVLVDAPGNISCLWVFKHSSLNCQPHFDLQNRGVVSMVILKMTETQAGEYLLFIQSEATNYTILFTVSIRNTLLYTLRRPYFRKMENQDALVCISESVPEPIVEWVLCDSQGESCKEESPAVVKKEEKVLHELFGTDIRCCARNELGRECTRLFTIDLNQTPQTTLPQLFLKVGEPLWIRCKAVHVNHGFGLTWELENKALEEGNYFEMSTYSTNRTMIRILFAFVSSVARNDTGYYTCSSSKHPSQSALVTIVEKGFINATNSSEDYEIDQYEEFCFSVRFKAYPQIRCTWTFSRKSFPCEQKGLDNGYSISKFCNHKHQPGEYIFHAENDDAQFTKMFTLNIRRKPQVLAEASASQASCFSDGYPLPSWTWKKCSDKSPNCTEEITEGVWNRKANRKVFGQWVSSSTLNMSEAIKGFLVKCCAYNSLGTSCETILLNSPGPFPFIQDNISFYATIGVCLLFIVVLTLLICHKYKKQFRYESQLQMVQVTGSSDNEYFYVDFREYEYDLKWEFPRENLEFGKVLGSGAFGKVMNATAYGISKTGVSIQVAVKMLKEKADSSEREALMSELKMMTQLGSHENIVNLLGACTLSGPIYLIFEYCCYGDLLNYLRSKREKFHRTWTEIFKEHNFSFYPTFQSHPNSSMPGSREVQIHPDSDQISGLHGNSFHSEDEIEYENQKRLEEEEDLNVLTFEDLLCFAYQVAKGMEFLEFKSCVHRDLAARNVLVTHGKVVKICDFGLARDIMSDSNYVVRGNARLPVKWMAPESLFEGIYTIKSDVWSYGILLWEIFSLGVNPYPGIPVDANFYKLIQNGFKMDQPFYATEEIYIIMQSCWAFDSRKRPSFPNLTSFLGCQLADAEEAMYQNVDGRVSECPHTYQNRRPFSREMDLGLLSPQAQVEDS
Experimental: as §1, with “The” for “The inhibition percentages of the target compound 5l at a concentration of 10 µM were assessed using DMSO as a solvent against ten kinases, namely PTK2B, JAK1, CDK2, FGFR1, IGF1R, VEGFR-2, PDGFRα, PDGFRβ, FLT3, and Src. The”

CDK2 = target: T9, CDK2 (Homo sapiens, UniProt P24941); test: Z'-LYTE kinase assay; type: biochemical
T9 construct: purchased Invitrogen/Life Technologies
Experimental: as §1, with “The” for “The inhibition percentages of the target compound 5l at a concentration of 10 µM were assessed using DMSO as a solvent against ten kinases, namely PTK2B, JAK1, CDK2, FGFR1, IGF1R, VEGFR-2, PDGFRα, PDGFRβ, FLT3, and Src. The”

Colon cancer subpanel = test: NCI-60 screen, subpanel summary; type: cell-based, human
Source text: (§2) (Table 5). Moreover, the ratio of the MG-MID of the full-panel to its individual sub-panels offers the selectivity index.

Prostate cancer subpanel = test: NCI-60 screen, subpanel summary; type: cell-based, human
Source text: as §2

Melanoma subpanel = test: NCI-60 screen, subpanel summary; type: cell-based, human
Source text: as §2

CNS cancer subpanel = test: NCI-60 screen, subpanel summary; type: cell-based, human
Source text: as §2

Leukemia subpanel = test: NCI-60 screen, subpanel summary; type: cell-based, human
Source text: as §2

Renal cancer subpanel = test: NCI-60 screen, subpanel summary; type: cell-based, human
Source text: as §2

VEGFR-2 = target: T10, VEGFR-2 (Homo sapiens, UniProt P35968); test: VEGFR-2/KDR ELISA kit kinase assay; type: biochemical
T10 construct: purchased
Experimental: as §1

[1] = three separate experiments ± SD

T3 sequence (P23458 whole entry): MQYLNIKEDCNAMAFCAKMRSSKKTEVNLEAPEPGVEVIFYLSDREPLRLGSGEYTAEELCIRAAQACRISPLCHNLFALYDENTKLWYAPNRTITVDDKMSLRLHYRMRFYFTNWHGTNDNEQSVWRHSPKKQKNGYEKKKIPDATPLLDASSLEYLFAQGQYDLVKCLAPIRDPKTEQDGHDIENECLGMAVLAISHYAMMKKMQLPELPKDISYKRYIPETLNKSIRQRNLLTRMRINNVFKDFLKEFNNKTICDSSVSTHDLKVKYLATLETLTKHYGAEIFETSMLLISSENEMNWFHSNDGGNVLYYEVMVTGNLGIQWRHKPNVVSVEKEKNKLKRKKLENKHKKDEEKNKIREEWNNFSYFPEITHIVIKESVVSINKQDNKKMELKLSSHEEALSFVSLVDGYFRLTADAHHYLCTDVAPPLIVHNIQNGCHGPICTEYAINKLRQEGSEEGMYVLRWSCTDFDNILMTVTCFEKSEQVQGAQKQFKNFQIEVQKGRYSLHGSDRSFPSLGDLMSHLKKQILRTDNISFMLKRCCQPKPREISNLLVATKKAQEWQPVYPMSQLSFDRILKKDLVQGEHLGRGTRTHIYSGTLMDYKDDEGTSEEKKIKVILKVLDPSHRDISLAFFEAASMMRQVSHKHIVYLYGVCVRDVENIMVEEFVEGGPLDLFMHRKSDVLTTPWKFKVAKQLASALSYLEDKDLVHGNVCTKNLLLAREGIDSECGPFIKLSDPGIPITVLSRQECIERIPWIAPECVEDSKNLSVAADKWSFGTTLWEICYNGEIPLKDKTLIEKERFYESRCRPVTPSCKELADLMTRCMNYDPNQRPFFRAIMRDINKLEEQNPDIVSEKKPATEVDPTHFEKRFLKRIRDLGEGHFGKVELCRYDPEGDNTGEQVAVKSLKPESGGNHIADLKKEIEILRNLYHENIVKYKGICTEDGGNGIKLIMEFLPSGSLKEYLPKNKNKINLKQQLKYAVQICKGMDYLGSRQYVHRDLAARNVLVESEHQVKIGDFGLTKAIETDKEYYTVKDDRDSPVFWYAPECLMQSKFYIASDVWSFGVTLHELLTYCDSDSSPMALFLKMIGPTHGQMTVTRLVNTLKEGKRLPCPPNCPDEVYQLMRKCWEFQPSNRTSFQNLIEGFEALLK
T7 sequence (P16234 24-1089): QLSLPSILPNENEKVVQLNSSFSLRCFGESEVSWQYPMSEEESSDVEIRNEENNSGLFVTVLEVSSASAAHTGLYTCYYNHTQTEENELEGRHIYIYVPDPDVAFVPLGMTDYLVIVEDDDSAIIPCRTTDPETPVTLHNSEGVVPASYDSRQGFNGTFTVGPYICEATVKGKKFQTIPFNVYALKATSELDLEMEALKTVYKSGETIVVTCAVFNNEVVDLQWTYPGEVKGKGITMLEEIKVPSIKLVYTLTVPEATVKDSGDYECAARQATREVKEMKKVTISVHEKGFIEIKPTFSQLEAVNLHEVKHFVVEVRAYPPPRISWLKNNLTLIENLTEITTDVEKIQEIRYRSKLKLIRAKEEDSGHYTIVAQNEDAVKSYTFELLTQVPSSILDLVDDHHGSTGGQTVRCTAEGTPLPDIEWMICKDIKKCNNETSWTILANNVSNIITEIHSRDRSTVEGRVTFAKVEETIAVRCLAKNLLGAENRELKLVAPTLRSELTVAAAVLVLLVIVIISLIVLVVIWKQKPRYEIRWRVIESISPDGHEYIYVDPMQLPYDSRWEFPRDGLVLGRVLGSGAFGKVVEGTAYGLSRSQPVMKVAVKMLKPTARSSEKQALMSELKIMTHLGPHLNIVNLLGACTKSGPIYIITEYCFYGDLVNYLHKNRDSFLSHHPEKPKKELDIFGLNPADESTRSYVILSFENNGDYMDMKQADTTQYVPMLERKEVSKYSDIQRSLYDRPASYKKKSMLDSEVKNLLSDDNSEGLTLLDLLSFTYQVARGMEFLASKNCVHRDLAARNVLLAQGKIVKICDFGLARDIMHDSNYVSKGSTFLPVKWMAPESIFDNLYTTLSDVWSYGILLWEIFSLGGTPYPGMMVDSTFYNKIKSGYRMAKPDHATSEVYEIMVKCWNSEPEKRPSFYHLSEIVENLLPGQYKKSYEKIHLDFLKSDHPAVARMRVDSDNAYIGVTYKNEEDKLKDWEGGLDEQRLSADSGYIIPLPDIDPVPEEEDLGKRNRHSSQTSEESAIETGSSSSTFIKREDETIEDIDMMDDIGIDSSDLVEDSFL
T5 sequence (Q14289 whole entry): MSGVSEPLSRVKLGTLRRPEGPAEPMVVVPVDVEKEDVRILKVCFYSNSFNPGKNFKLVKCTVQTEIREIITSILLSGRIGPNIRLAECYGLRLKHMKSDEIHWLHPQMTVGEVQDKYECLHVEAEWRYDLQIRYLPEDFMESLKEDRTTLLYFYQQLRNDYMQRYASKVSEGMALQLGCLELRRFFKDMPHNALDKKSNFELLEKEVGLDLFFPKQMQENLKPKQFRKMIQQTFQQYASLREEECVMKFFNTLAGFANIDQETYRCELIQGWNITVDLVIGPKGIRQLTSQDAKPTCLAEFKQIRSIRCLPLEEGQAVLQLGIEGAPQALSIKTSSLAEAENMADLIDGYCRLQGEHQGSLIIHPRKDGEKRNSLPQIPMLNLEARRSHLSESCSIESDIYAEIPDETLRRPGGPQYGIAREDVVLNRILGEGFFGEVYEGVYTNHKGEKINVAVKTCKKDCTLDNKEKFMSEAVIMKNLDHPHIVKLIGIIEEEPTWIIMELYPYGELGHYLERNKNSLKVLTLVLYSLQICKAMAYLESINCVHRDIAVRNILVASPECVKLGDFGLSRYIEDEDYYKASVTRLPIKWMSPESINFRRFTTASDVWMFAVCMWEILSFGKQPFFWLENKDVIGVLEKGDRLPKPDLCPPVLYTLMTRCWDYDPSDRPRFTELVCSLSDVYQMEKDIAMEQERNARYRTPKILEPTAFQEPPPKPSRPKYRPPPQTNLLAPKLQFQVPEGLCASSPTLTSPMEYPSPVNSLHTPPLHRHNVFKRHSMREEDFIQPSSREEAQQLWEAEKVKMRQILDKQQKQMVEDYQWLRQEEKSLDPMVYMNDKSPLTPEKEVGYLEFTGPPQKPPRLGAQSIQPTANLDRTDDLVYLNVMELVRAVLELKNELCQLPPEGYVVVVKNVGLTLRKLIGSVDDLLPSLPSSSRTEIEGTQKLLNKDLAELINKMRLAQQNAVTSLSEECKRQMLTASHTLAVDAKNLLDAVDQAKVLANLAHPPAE
T4 sequence (P12931 whole entry): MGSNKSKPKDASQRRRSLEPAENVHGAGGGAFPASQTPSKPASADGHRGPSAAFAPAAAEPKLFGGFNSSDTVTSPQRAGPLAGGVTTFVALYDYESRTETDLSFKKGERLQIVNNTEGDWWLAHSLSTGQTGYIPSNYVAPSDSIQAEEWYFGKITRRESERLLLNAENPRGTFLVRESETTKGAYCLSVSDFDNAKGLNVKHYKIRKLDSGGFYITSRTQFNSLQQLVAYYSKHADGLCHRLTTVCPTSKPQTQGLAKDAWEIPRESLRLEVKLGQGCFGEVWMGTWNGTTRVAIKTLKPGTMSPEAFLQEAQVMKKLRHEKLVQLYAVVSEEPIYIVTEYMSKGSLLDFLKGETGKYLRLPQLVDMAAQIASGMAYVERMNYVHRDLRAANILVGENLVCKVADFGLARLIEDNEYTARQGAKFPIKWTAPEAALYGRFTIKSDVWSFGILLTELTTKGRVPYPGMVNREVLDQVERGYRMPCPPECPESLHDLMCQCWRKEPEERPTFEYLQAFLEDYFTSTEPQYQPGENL
T6 sequence (P11362 22-822): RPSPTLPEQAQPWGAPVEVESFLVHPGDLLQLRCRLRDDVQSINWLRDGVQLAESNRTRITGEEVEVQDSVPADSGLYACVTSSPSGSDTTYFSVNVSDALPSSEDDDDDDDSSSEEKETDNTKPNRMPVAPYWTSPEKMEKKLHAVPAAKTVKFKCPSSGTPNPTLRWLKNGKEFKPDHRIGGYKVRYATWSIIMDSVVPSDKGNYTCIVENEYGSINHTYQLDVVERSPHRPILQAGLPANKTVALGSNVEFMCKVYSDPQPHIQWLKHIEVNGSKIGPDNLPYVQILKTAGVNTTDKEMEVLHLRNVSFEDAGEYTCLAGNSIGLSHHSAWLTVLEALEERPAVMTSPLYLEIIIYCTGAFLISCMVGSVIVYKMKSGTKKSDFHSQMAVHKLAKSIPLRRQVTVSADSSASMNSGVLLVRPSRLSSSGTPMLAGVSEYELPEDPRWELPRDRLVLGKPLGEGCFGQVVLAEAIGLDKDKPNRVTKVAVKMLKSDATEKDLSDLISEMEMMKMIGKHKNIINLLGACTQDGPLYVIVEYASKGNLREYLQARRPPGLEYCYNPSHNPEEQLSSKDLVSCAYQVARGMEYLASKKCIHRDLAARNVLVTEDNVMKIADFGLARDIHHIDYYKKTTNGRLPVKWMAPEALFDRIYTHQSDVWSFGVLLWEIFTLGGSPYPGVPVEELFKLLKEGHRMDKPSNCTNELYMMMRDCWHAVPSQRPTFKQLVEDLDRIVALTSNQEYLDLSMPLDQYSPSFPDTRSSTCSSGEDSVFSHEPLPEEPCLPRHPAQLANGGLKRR

## O=C1Nc2ccccc2C1=Cc1ccc(OCc2ccccc2)cc1 (mixture of isomers) [Compound 5a, (E/Z)-3-[4-(Benzyloxy)benzylidene] indolin-2-one]
UACC-62; Homo sapiens
  inhibition at 10 µM: 6.11%
SK-MEL-28; Homo sapiens, 48 h
  inhibition at 10 µM: -7.21%

## O=C1Nc2ccc(F)cc2C1=Cc1ccc(OCc2ccccc2)cc1 (mixture of isomers) [Compound 5b, (E/Z)-3-[4-(Benzyloxy)benzylidene]-5-fluoroindolin-2-one]
UACC-62; Homo sapiens
  inhibition at 10 µM: 4.38%
SK-MEL-28; Homo sapiens, 48 h
  inhibition at 10 µM: 2.92%

## O=C1Nc2ccc(Cl)cc2C1=Cc1ccc(OCc2ccccc2)cc1 (mixture of isomers) [Compound 5c, (E/Z)-3-[4-(Benzyloxy)benzylidene]-5-chloroindolin-2-one]
UACC-62; Homo sapiens
  inhibition at 10 µM: 5.69%
SK-MEL-28; Homo sapiens, 48 h
  inhibition at 10 µM: -8.75%

## O=C1Nc2cc(Cl)ccc2C1=Cc1ccc(OCc2ccccc2)cc1 (mixture of isomers) [Compound 5d, (E/Z)-3-[4-(Benzyloxy)benzylidene]-6-chloroindolin-2-one]
UACC-62; Homo sapiens
  inhibition at 10 µM: 4.09%
SK-MEL-28; Homo sapiens, 48 h
  inhibition at 10 µM: -2.97%

## O=C1Nc2ccccc2C1=Cc1ccc(OCc2ccccn2)cc1 (mixture of isomers) [Compound 5e, (E/Z)-3-[4-(Pyridin-2-ylmethoxy]benzylidene) indolin-2-one]
UACC-62; Homo sapiens
  inhibition at 10 µM: 40.4%
SK-MEL-28; Homo sapiens, 48 h
  inhibition at 10 µM: -0.76%

## O=C1Nc2ccc(F)cc2C1=Cc1ccc(OCc2ccccn2)cc1 (mixture of isomers) [Compound 5f, (E/Z)-5-fluoro-3-[4-(pyridin-2-ylmethoxy)benzylidene]indolin-2-one]
UACC-62; Homo sapiens
  inhibition at 10 µM: 9.94%
SK-MEL-28; Homo sapiens, 48 h
  inhibition at 10 µM: -8.53%

## O=C1Nc2ccc(Cl)cc2C1=Cc1ccc(OCc2ccccn2)cc1 (mixture of isomers) [Compound 5g, (E/Z)-5-Chloro-3-[4-(pyridin-2-ylmethoxy)benzylidene] indolin-2-one]
UACC-62; Homo sapiens
  inhibition at 10 µM: 33.3%
SK-MEL-28; Homo sapiens, 48 h
  inhibition at 10 µM: -0.48%

## O=C1Nc2cc(Cl)ccc2C1=Cc1ccc(OCc2ccccn2)cc1 (mixture of isomers) [Compound 5h, (E/Z)-6-Chloro-3-[4-(pyridin-2-ylmethoxy)benzylidene]indolin-2-one]
UACC-62; Homo sapiens
  inhibition at 10 µM: 49.6%
SK-MEL-28; Homo sapiens, 48 h
  inhibition at 10 µM: -8.02%

## O=C1Nc2ccccc2C1=Cc1ccc(OCc2cccnc2)cc1 (mixture of isomers) [Compound 5i, (E/Z)-3-[4-(Pyridin-3-ylmethoxy)benzylidene]indolin-2-one]
UACC-62; Homo sapiens
  inhibition at 10 µM: 43.5%
SK-MEL-28; Homo sapiens, 48 h
  inhibition at 10 µM: -2.65%

## O=C1Nc2ccc(F)cc2C1=Cc1ccc(OCc2cccnc2)cc1 (mixture of isomers) [Compound 5j, (E/Z)-5-Fluoro-3-[4-(pyridin-3-ylmethoxy)benzylidene]indolin-2-one]
UACC-62; Homo sapiens
  inhibition at 10 µM: 57.8%
SK-MEL-28; Homo sapiens, 48 h
  inhibition at 10 µM: 28.2%

## O=C1Nc2ccc(Cl)cc2C1=Cc1ccc(OCc2cccnc2)cc1 (mixture of isomers) [Compound 5k, (E/Z)-5-Chloro-3-[4-(pyridin-3-ylmethoxy)benzylidene] indolin-2-one]
UACC-62; Homo sapiens
  inhibition at 10 µM: 23.3%
SK-MEL-28; Homo sapiens, 48 h
  inhibition at 10 µM: -20.5%

## O=C1Nc2cc(Cl)ccc2C1=Cc1ccc(OCc2cccnc2)cc1 (mixture of isomers) [Compound 5l, (E/Z)-6-Chloro-3-[4-(pyridin-3-ylmethoxy)benzylidene] indolin-2-one]
IGF1R
  inhibition at 10 µM: 2.88%
PDGFRβ
  inhibition at 10 µM: 26.6%
JAK1
  inhibition at 10 µM: 4.17%
SRC
  inhibition at 10 µM: 10.9%
PTK2B
  inhibition at 10 µM: 9.96%
FGFR1
  inhibition at 10 µM: 24.1%
PDGFRα
  inhibition at 10 µM: 43.5%
FLT3; 10 µM, FLT3
  inhibition at 10 µM: 92.6%
FLT3; [1]
  IC50: 0.0362 ± 0.00107 µM
CDK2; 10 µM, CDK2
  inhibition at 10 µM: 87.7%
CDK2; [1]
  IC50: 0.00817 ± 0.00032 µM
UACC-62; Homo sapiens
  inhibition at 10 µM: 64.3%
UACC-62; Homo sapiens, five-dose, UACC-62
  GI50: 7.7 µM
UACC-62; five-dose, UACC-62
  TGI: 43.50 µM
Colon cancer subpanel; Homo sapiens, 10 µM, colon cancer, read-out: overall inhibition in panel (radar chart)
  inhibition at 10 µM: > 90%
Colon cancer subpanel; Homo sapiens, five-dose, Colon cancer subpanel, read-out: MG-MID (GI50)
  GI50: 5.97 µM
Colon cancer subpanel; ratio of full-panel MG-MID to Colon cancer subpanel MG-MID
  Selectivity Index: 2.05
Prostate cancer subpanel; Homo sapiens, five-dose, Prostate cancer subpanel, read-out: MG-MID (GI50)
  GI50: 9.78 µM
Prostate cancer subpanel; ratio of full-panel MG-MID to Prostate cancer subpanel MG-MID
  Selectivity Index: 1.25
Melanoma subpanel; Homo sapiens, 10 µM, melanoma, read-out: overall inhibition in panel (radar chart)
  inhibition at 10 µM: > 90%
Melanoma subpanel; Homo sapiens, five-dose, Melanoma subpanel, read-out: MG-MID (GI50)
  GI50: 10.9 µM
Melanoma subpanel; ratio of full-panel MG-MID to Melanoma subpanel MG-MID
  Selectivity Index: 1.12
CNS cancer subpanel; Homo sapiens, five-dose, CNS cancer subpanel, read-out: MG-MID (GI50)
  GI50: 11 µM
CNS cancer subpanel; ratio of full-panel MG-MID to CNS cancer subpanel MG-MID
  Selectivity Index: 1.11
Leukemia subpanel; Homo sapiens, 10 µM, leukemia, read-out: overall inhibition in panel (radar chart)
  inhibition at 10 µM: > 90%
Leukemia subpanel; Homo sapiens, five-dose, Leukemia subpanel, read-out: MG-MID (GI50)
  GI50: 3.39 µM
Leukemia subpanel; ratio of full-panel MG-MID to Leukemia subpanel MG-MID
  Selectivity Index: 3.61
Renal cancer subpanel; Homo sapiens, five-dose, Renal cancer subpanel, read-out: MG-MID (GI50)
  GI50: 19.8 µM
Renal cancer subpanel; ratio of full-panel MG-MID to Renal cancer subpanel MG-MID
  Selectivity Index: 0.62
VEGFR-2
  inhibition at 10 µM: 38.5%
SK-MEL-28; Homo sapiens, SK-MEL-28, 48 h, five-dose, SK-MEL-28, read-out: LC50 (the source's name)
  CC50: 71.5 µM
SK-MEL-28; Homo sapiens, 48 h
  inhibition at 10 µM: 46.3%
SK-MEL-28; Homo sapiens, five-dose, 48 h, SK-MEL-28
  GI50: 12.3 µM
SK-MEL-28; five-dose, 48 h, SK-MEL-28
  TGI: 28.50 µM
SK-MEL-28; five-dose, 48 h, SK-MEL-28, read-out: LC50 (the source's name)
  CC50: 65.6 µM

## O=C1Nc2ccccc2C1=Cc1ccc(OCc2ccncc2)cc1 (mixture of isomers) [Compound 5m, (E/Z)-3-[4-(Pyridin-4-ylmethoxy)benzylidene] indolin-2-one]
UACC-62; Homo sapiens
  inhibition at 10 µM: 31.1%
SK-MEL-28; Homo sapiens, 48 h
  inhibition at 10 µM: -4.73%

## O=C1Nc2ccc(F)cc2C1=Cc1ccc(OCc2ccncc2)cc1 (mixture of isomers) [Compound 5n, (E/Z)-5-Fluoro-3-[4-(pyridin-4-ylmethoxy)benzylidene] indolin-2-one]
UACC-62; Homo sapiens
  inhibition at 10 µM: 28.4%
SK-MEL-28; Homo sapiens, 48 h
  inhibition at 10 µM: -9.39%

## O=C1Nc2ccc(Cl)cc2C1=Cc1ccc(OCc2ccncc2)cc1 (mixture of isomers) [Compound 5o, (E/Z)-5-Chloro-3-[4-(pyridin-4-ylmethoxy)benzylidene] indolin-2-one]
UACC-62; Homo sapiens
  inhibition at 10 µM: 37.6%
SK-MEL-28; Homo sapiens, 48 h
  inhibition at 10 µM: 14.5%

## O=C1Nc2cc(Cl)ccc2C1=Cc1ccc(OCc2ccncc2)cc1 (mixture of isomers) [Compound 5p, (E/Z)-6-Chloro-3-[4-(pyridin-4-ylmethoxy)benzylidene]indolin-2-one]
UACC-62; Homo sapiens
  inhibition at 10 µM: 34.7%
SK-MEL-28; Homo sapiens, 48 h
  inhibition at 10 µM: -10.9%
